From US20260234112A1, “COMPOUNDS, COMPOSITIONS, AND METHODS OF USE THEREOF” (Type6 Therapeutics, Inc., priority 2023, published 2026)

Biological target: T1, Cdk2(2-298) (Homo sapiens, UniProt P24941)
T1 construct: Biotinylated N-terminal avi-tagged Cdk2(2-298) or Cdk1(1-297) was immobilized
Experiment: Surface Plasmon Resonance (SPR) compound interaction, Biacore 8K
Type: binding
Details: single-cycle kinetics (SCK, "S"), dissociation 1800 sec, read-out: Activity rating (KD)
Procedure: Compound interaction was profiled using a Biacore 8K instrument (Cytiva). Biotinylated N-terminal avi-tagged Cdk2(2-298) or Cdk1(1-297) was immobilized on a series S sensor Chip SA at a capture level between 2500 RU and 3000 RU (Cdk2) or 7000 RU (Cdk1) in buffer (25 mM HEPES, 150 mM NaCl, 0.05% Tween20, pH 7.5). A compound dilution plate (8 concentrations, 3-fold dilution) in DMSO was prepared (100× assay concentration). From this plate, compound DMSO stock solution was transferred into buffer, yielding a final DMSO concentration of 1% in assay. The remaining buffer was supplemented with 1% DMSO. Compounds were injected in a series of increasing concentrations in multi-cycle kinetics (MCK, “M”) or single-cycle kinetics (SCK, “S”) mode at a flow rate of 30 μl/min for 120 sec and dissociation was profiled for 180 sec (MCK) or 1800 sec (SCK). Data were analysed using Biacore Insight Evaluation Software (Cytiva).

Row | Structure (SMILES) | Kd [nM]
1 | N[C@H]1CC[C@H](Nc2nccc(-c3cnccc3Oc3ccc(NS(=O)(=O)c4ccccc4)c(Cl)c3)n2)CC1 [Compound 61, N-[4-[[3-[2-[(1r,4r)(4-Aminocyclohexyl)amino]pyrimidin-4-yl]-4-pyridyl]oxy]-2-chiorophenyl] benzenesulfonamide] | 100 to 1000
2 | N[C@H]1CC[C@H](Nc2nccc(-c3cnccc3Oc3ccc(NS(=O)(=O)c4ccccc4)c(Br)c3)n2)CC1 [Compound 62, N-[4-[[3-[2-[(1r,4r)(4-Aminocyclohexyl)amino]pyrimidin-4-yl]-4-pyridyl]oxy]-2-bromophenyl] benzenesulfonamide] | 100 to 1000
3 | N[C@H]1CC[C@H](Nc2nccc(-c3cnccc3Oc3cc(Cl)c(NS(=O)(=O)c4ccccc4)c(Cl)c3)n2)CC1 [Compound 63, N-[4-[[3-[2-[(1r,4r)(4-Aminocyclohexyl)amino]pyrimidin-4-yl]-4-pyridyl]oxy]-2,6-dichlorophenyl] benzenesulfonamide] | 1000 to 5000
4 | N[C@H]1CC[C@H](Nc2nccc(-c3cnccc3Oc3ccc(NS(=O)(=O)c4ccccc4F)cc3F)n2)CC1 [Compound 64, N-[4-[[3-[2-[(1r,4r)(4-Aminocyclohexyl)amino]pyrimidin-4-yl]-4-pyridyl]oxy]-3-fluorophenyl] 2-fluorobenzenesulfonamide] | ≤ 10
5 | N[C@H]1CC[C@H](Nc2nccc(-c3cnccc3Oc3ccc(NS(=O)(=O)c4ccccc4I)cc3F)n2)CC1 [Compound 65, N-[4-[[3-[2-[(1r,4r)(4-Aminocyclohexyl)amino]pyrimidin-4-yl]-4-pyridyl]oxy]-3-fluorophenyl] 2-iodobenzenesulfonamide] | ≤ 10
6 | CC(C)(C)c1ccccc1S(=O)(=O)Nc1ccc(Oc2ccncc2-c2ccnc(N[C@H]3CC[C@H](N)CC3)n2)c(F)c1 [Compound 66, N-[4-[[3-[2-[(1r,4r)(4-Aminocyclohexyl)amino]pyrimidin-4-yl]-4-pyridyl]oxy]-3-fluorophenyl] 2-tert-butylbenzenesulfonamide] | 100 to 1000
7 | N#Cc1ccccc1S(=O)(=O)Nc1ccc(Oc2ccncc2-c2ccnc(N[C@H]3CC[C@H](N)CC3)n2)c(F)c1 [Compound 67, N-[4-[[3-[2-[(1r,4r)(4-Aminocyclohexyl)amino]pyrimidin-4-yl]-4-pyridyl]oxy]-3-fluorophenyl] 2-cyanobenzenesulfonamide] | ≤ 10
8 | N[C@H]1CC[C@H](Nc2nccc(-c3cnccc3Oc3ccc(NS(=O)(=O)C4CCCCC4)cc3F)n2)CC1 [Compound 68, N-[4-[[3-[2-[(1r,4r)(4-Aminocyclohexyl)amino]pyrimidin-4-yl]-4-pyridyl]oxy]-3-fluorophenyl] cyclohexylsulfonamide] | 100 to 1000
9 | N[C@H]1CC[C@H](Nc2nccc(-c3cnccc3Oc3ccc(NS(=O)(=O)c4cccc5ccccc45)cc3F)n2)CC1 [Compound 69, N-[4-[[3-[2-[(1r,4r)(4-Aminocyclohexyl)amino]pyrimidin-4-yl]-4-pyridyl]oxy]-3-fluorophenyl] naphthalene-1-sulfonamide] | 11 to 100
10 | O=S(=O)(Nc1ccc(Oc2ccncc2-c2ccnc(N[C@H]3CCCNC3)n2)c(F)c1)c1cccc2ccccc12 [Compound 70, N-[3-Fluoro-4-[[3-[2-[[(3S)-3-piperidyl]amino]pyrimidin-4-yl]-4-pyridyl]oxy]phenyl] naphthalene-1-sulfonamide] | ≤ 10
11 | CCc1ccccc1S(=O)(=O)Nc1ccc(Oc2ccncc2-c2ccnc(N[C@H]3CC[C@H](N)CC3)n2)c(F)c1 [Compound 71, N-[4-[[3-[2-(1r,4r)[(4-Aminocyclohexyl)amino]pyrimidin-4-yl]-4-pyridyl]oxy]-3-fluorophenyl] 2-ethylbenzenesulfonamide] | ≤ 10
12 | N[C@H]1CC[C@H](Nc2nccc(-c3cnccc3Oc3ccc(NS(=O)(=O)c4ccccc4-c4ccccc4)cc3F)n2)CC1 [Compound 72, N-[4-[[3-[2-(1r,4r)[(4-Aminocyclohexyl)amino]pyrimidin-4-yl]-4-pyridyl]oxy]-3-fluorophenyl] 2-phenylbenzenesulfonamide] | 11 to 100
13 | C#Cc1ccccc1S(=O)(=O)Nc1ccc(Oc2ccncc2-c2ccnc(N[C@H]3CC[C@H](N)CC3)n2)c(F)c1 [Compound 73, N-[4-[[3-[2-(1r,4r)[(4-Aminocyclohexyl)amino]pyrimidin-4-yl]-4-pyridyl]oxy]-3-fluorophenyl] 2-ethynylbenzenesulfonamide] | 11 to 100
14 | N[C@H]1CC[C@H](Nc2nccc(-c3cnccc3Oc3ccc(NS(=O)(=O)C45CC6CC(CC(C6)C4)C5)cc3F)n2)CC1 [Compound 74, N-[4-[[3-[2-(1r,4r)[(4-Aminocyclohexyl)amino]pyrimidin-4-yl]-4-pyridyl]oxy]-3-fluorophenyl] adamant-1-ylsulfonamide] | > 5000
15 | N[C@H]1CC[C@H](Nc2nccc(-c3cnccc3Oc3ccc(NS(=O)(=O)C4CC5CCC4C5)cc3F)n2)CC1 (stereo partly drawn) [Compound 75, N-[4-[[3-[2-(1r,4r)[(4-Aminocyclohexyl)amino]pyrimidin-4-yl]-4-pyridyl]oxy]-3-fluorophenyl] [R,S]-exo-norborn-2-ylsulfonamide] | 100 to 1000
16 | CN(C)[C@H]1CC[C@H](Nc2nccc(-c3cnccc3Oc3ccc(NC(=O)c4ccccc4Cl)cc3F)n2)CC1 [Compound 76, N-[4-[[3-[2-[(1r,4r)(4-(N,N-Dimethylamino)cyclohexyl)amino]pyrimidin-4-yl]-4-pyridyl]oxy]-3-fluorophenyl] 2-chlorobenzamide] | 100 to 1000
17 | CN1CCC(Nc2nccc(-c3cnccc3Oc3ccc(NS(=O)(=O)c4ccccc4Cl)cc3F)n2)CC1 [Compound 77, N-[3-Fluoro-4-[[3-[2-[[N-methylpiperid-4-yl]amino]pyrimidin-4-yl]-4-pyridyl]oxy]phenyl] 2-chlorobenzenesulfonamide] | 11 to 100
18 | CN(C)[C@H]1CC[C@H](Nc2nccc(-c3cnccc3Oc3ccc(NS(=O)(=O)c4ccccc4Cl)cc3F)n2)CC1 [Compound 78, N-[4-[[3-[2-[(1r,4r)(4-(N,N-Dimethylamino)cyclohexyl)amino]pyrimidin-4-yl]-4-pyridyl]oxy]-3-fluorophenyl] 2-chlorobenzenesulfonamide] | 11 to 100

Row | Structure (SMILES) | Kd [nM]
19 | N[C@H]1CC[C@H](Nc2nccc(-c3cnccc3Oc3ccc(NS(=O)(=O)c4ccccc4Cl)c(F)c3)n2)CC1 [Compound 79, N-[4-[[3-[2-[(1r,4r)(4-Aminocyclohexyl)amino]pyrimidin-4-yl]-4-pyridyl]oxy]-2-fluorophenyl] 2-chlorobenzenesulfonamide] | ≤ 10
20 | N[C@H]1CC[C@H](Nc2nccc(-c3cnccc3Oc3ccc(NS(=O)(=O)c4ccc(CO)cc4F)cc3F)n2)CC1 [Compound 81] | 100 to 1000
21 | N[C@H]1CC[C@H](Nc2nccc(-c3cnccc3Oc3ccc(NS(=O)(=O)c4ccc(CO)cc4F)c(F)c3)n2)CC1 [Compound 82, N-82[4-[[3-[2-(1r,4r)[(4-Aminocyclohexyl)amino]pyrimidin-4-yl]-4-pyridyl]oxy]-2-fluorophenyl] 2-fluoro-4-(hydroxymethyl)benzenesulfonamide] | 100 to 1000
22 | N[C@H]1CC[C@H](Nc2nccc(-c3cnccc3Oc3ccc(NS(=O)(=O)c4ccc(CCO)cc4F)cc3F)n2)CC1 [Compound 83, N-[4-[[3-[2-(1r,4r)[(4-Aminocyclohexyl)amino]pyrimidin-4-yl]-4-pyridyl]oxy]-3-fluorophenyl] 2-fluoro-4-(2-hydroxyethyl)benzenesulfonamide] | 100 to 1000
23 | N[C@H]1CC[C@H](Nc2nccc(-c3cnccc3Oc3ccc(NS(=O)(=O)c4ccc(CCO)cc4F)c(F)c3)n2)CC1 [Compound 84, N-[4-[[3-[2-(1r,4r)[(4-Aminocyclohexyl)amino]pyrimidin-4-yl]-4-pyridyl]oxy]-2-fluorophenyl] 2-fluoro-4-(2-hydroxyethyl)benzenesulfonamide] | 100 to 1000
24 | CN(C)CCNc1nccc(-c2cnccc2Oc2ccc(NS(=O)(=O)c3ccccc3Cl)cc2F)n1 [Compound 85] | 100 to 1000
25 | O=S(=O)(Nc1ccc(Oc2ccncc2-c2ccnc(NCCN3CCOCC3)n2)c(F)c1)c1ccccc1Cl [Compound 86] | 100 to 1000
26 | O=S(=O)(Nc1ccc(Oc2ccncc2-c2ccnc(NCCOCCO)n2)c(F)c1)c1ccccc1Cl [Compound 87] | 100 to 1000
27 | O=S(=O)(Nc1ccc(Oc2ccncc2-c2ccnc(NC3COC3)n2)c(F)c1)c1ccccc1Cl [Compound 88] | ≤ 10
28 | O=S(=O)(Nc1ccc(Oc2ccncc2-c2ccnc(NC3COC3)n2)c(F)c1)c1ccccc1Cl [Compound 89] | 11 to 100
29 | O=S(=O)(Nc1ccc(Oc2ccncc2-c2ccnc(NCCN3CCCC3)n2)c(F)c1)c1ccccc1Cl [Compound 90] | 100 to 1000
30 | COCCOCCNc1nccc(-c2cnccc2Oc2ccc(NS(=O)(=O)c3ccccc3Cl)cc2F)n1 [Compound 91] | 100 to 1000
31 | O=S(=O)(Nc1ccc(Oc2ccncc2-c2ccnc(NC3CC4(CNC4)C3)n2)c(F)c1)c1ccccc1Cl [Compound 92] | ≤ 10
32 | CN1CC[C@H](Nc2nccc(-c3cnccc3Oc3ccc(NS(=O)(=O)c4ccccc4Cl)cc3F)n2)C1 [Compound 93] | 100 to 1000
33 | O=S(=O)(Nc1ccc(Oc2ccncc2-c2ccnc(NCCN3CCC3)n2)c(F)c1)c1ccccc1Cl [Compound 94] | 100 to 1000
34 | O=S(=O)(Nc1ccc(Oc2ccncc2-c2ccnc(NCCn3ccnc3)n2)c(F)c1)c1ccccc1Cl [Compound 95] | 11 to 100
35 | O=S(=O)(Nc1ccc(Oc2ccncc2-c2ccnc(NCCc3ncc[nH]3)n2)c(F)c1)c1ccccc1Cl [Compound 96] | 100 to 1000
36 | O=S(=O)(Nc1ccc(Oc2ccncc2-c2ccnc(NCCNCCO)n2)c(F)c1)c1ccccc1Cl [Compound 97] | 100 to 1000
